Measured values from US9340533B2, “1,4-benzothiazepine-1-oxide derivative and pharmaceutical composition utilizing the same” (priority 2009, dated 2016).

Key:
chronic infarct rat = experiment: Norepinephrine-induced LV diastolic dysfunction in chronic infarct rat; format: in vivo
Source text: Male Wistar rats were used. After induction of anesthesia with 3% isoflurane inhalation, a polyethylene tube was inserted into the trachea. Respiration was subsequently controlled with an artificial ventilator with maintenance of anesthesia using 1.7% isoflurane. The chest was opened at the left third intercostals space and the pericardial membrane was incised. The left anterior descending coronary artery (LAD) was completely ligated with silk string (6.0, Ethicon) in the infarction group. Following this procedure, the chest was immediately closed, the inserted tube in the trachea was removed, and subjects returned to the breeding room after arousal.
Two months after operation, animals were again anesthetized and intubated as described above. A micronanometer-tipped pressure catheter (2F, Millar Instruments) was inserted into the right common carotid artery into the left ventricle (LV) and a polyethylene catheter (SP10) for solution injection was inserted from the right femoral vein to infuse the physiological salt solution (PSS) or test compound solutions. After confirming stable hemodynamics for 10 minutes, 20 μg/kg/min of norepinephrine was infused for 30 minutes in the chronic infarction group. The invention compound [III] (0.1 mg/kg/min) and PSS were infused for 10 minutes after 20 minutes of administration of norepinephrine at 16.6 μL/min for test and control groups, respectively. LV minimum diastolic pressure and LV end-diastolic pressure was counted every minute for 20 heart beats. The area of myocardial infarction (infarction size) in rats was estimated using the modified method of Sandmann et al (J Cardiovasc Pharmacol 2000; 37; 64-77.) for administration of the compound of the present invention and PSS. That is, the infarct size (%) was estimated using the followed formula: […]
Data is shown as means and standard error. The following results are shown in Table 4 (control) and Table 5 (the compound), respectively.

Male Wistar rats [1] = experiment: Norepinephrine-induced hypertension in rats, LV pressure; format: in vivo, rat; conditions: under norepinephrine 20 μg/kg/min
Experimental: Male Wistar rats weighing 260 g were anesthetized with 3% isoflurane inhalation and respiration was subsequently controlled with an artificial ventilator using 1.7% isoflurane for maintained anesthetization. A micronanometer-tipped pressure catheter (2F, Millar Instruments) was inserted from the right common carotid artery into the left ventricle (LV) and a polyethylene catheter (SP 10) for solution injection was inserted from the right femoral vein and test solutions were injected. After confirming stable hemodynamics for 10 minutes, norepinephrine (20 μg/kg/min) was infused for 10 minutes followed by the infusion of the invention compound [III] (0.1 mg/kg/min) for 10 minutes. This invention compound [III] was infused three times with intervals of 10 minutes each. LV pressure was determined for 20 heart beats before and after administration. The infusion speed of each solution was 16.6 μL/min.

[2] = Stability of the compound at room temperature; format: physicochemical; conditions: exposure to oxygen, humidity, acid and alkali at room temperature
normal rat = experiment: LV diastolic function in normal rat (LV catheter, i.v. infusion); format: in vivo; conditions: 0.1 mg/kg/min i.v. infusion for 10 minutes, before administration set at 100%, mean and standard deviation
Source text: (1) After breeding for 1 week, male Wistar rats were anesthetized with 3% isoflurane inhalation, followed by an insertion of a tube in the trachea and respiration subsequently controlled with an artificial ventilator using 1.7% isoflurane for maintained anesthetization. A micrometer-tipped pressure catheter (Manufactured by 2F, Millar Instruments) was inserted from the right common carotid artery into the left ventricle (LV) and a polyethylene catheter (SP10) was inserted into the right femoral vein for the compound of the present invention or physiological salt solution (PSS) injections. After confirming stable hemodynamics for 10 minutes, LV minimum diastolic pressure and LV end-diastolic pressure was counted every minute. The compound [III] (0.1 mg/kg/min) of the present invention or PSS was infused at 16.6 μL/min for 10 minutes in the test and control groups, respectively.
LV minimum diastolic pressure and LV end-diastolic pressure was counted every minute for 20 heart beats before and after administration of the compound. […] Data is shown as mean and standard deviation.

[3] = system: left anterior descending coronary artery of porcine heart; experiment: Coronary relaxation of KCl-contracted porcine coronary artery strip (organ bath); conditions: Sus scrofa, read-out: concentration inducing 50% of relaxation (EC50%)
Experimental: Porcine heart was purchased without regard of gender. The heart was carried in steep, cool Krebs-Henseleit solution, filled with 95% bubbling oxygen (O2) gas and bicarbonate (CO2) and the left anterior descending coronary artery of 2.5-3 mm diameter was removed. The artery was steeped in the same nutrition solution overnight in a refrigerator and the next day a specimen from a short strip removal in the endothelium (open ring) of width 3 mm was obtained. The specimen was hanged in 10 ml of the organ bath filled with Krebs-Henseleit solution, 95% bubbling oxygen (O2) and bicarbonate (CO2) at 37° C. One side was fixed and the other side was connected to the isometric transducer (T7-8-240, T7-30-240, Olientic) and the change of tension on the amplifier was used for tension recording. After confirming the state for 120 minutes under 1.5 g loading, KCl (40 mM) was added. When the contraction reached a maximum, KCl was washed out. This wash-out was repeated 4 times during the course of 15 minutes. After the stable contraction of KCl was obtained, KCl (30 mM) dissolved in saline was added. […] The Krebs-Henseleit solution without the compounds served as the control.

Solubility in solvents = format: physicochemical
Source text: The compound of the present invention, 3-4-benzylpiperidin-1-yl)propionyl-7-methoxy-2,3,4,5-tetrahydro-1,4-benzothiazepine-1-oxide, which is produced by an oxidation of the hydrochloride salt represented by formula [V] by the oxidant, isolated by silica gel chromatography using chloroform-methanol as a solvent, followed by removed the solvent from the chloroform-methanol solution by azeotropic distillation, and finally removed by the residual solvent in argon. The purity of compound presented by formula [III], thus obtained is 90% or higher, and a molecular weight (mw) of the compound is 440.61. […] The compound has stereoisomers in the amide form, is confirmed to exist at the rate of about 2:3 in of amide parts using H-NMR analysis at room temperature.

Male Wistar rats [4] = experiment: Comparison of heart rate, LV pressure and LV diastolic function (-dP/dt) in anesthetized rats; format: in vivo, rat; conditions: for Heart rate after administration / LV diastolic function (−dP/dt) after administration / LV pressure after administration: 0.3 mg/kg/min i.v. for 5 minutes, anesthetized rats; for LV diastolic function (−dP/dt) before administration / LV pressure before administration / Heart rate before administration: baseline of the same rats before infusion; for Heart rate before administration: four rats per group
Source text: Male Wistar rats weighing 280-300 g were bred. After one week, animals were anesthetized with 3% isoflurane inhalation and respiration was subsequently controlled with an artificial ventilator using 1.7% isoflurane for maintained anesthetization. A micronanometer-tipped pressure catheter (2F, Millar Instruments) was inserted from the right common carotid artery into the left ventricle (LV) and a polyethylene catheter (SP10) for solution injection was inserted from the right femoral vein and the compounds [III] and [II] (R═H) were injected. After confirming stable hemodynamics for 10 minutes, heart rate, LV pressure, and maximal negative first derivative of LV pressure (−dP/dt) were investigated continuously. Each compound [III] or [II] was infused at 0.3 mg/kg/min for 5 minutes. Four rats in each group were evaluated. The solvent used consisted of 0.05% citric acid and 5% sorbitol. Each parameter before and after 5 minutes of administration was determined for 20 heart beats.

[5] = chronic infarct rat, baseline before norepinephrine infusion
[6] = chronic infarct rat, norepinephrine 20 μg/kg/min infusion
[7] = chronic infarct rat under norepinephrine 20 μg/kg/min, 0.1 mg/kg/min infused 10 minutes, before administration set at 100%, mean and standard error

Compound	EC50 [3]	Heart rate after administration (Male Wistar rats [4])	LV diastolic function (−dP/dt) after administration (Male Wistar rats [4])	LV pressure after administration (Male Wistar rats [4])	LV diastolic function (−dP/dt) before administration (Male Wistar rats [4])	LV pressure before administration (Male Wistar rats [4])	Heart rate before administration (Male Wistar rats [4])	other results
NC[C@H](O)c1ccc(O)c(O)c1 [Norepinephrine, norepinephrine]								LV end-diastolic pressure before administration of Norepinephrine (chronic infarct rat; [5]): 6.5 ± 0.7 mmHg; LV minimum diastolic pressure before administration of Norepinephrine (chronic infarct rat; [5]): 4.5 ± 0.8 mmHg; LV end-diastolic pressure after administration of Norepinephrine (chronic infarct rat; [6]): 25.8 ± 1.1 mmHg; LV minimum diastolic pressure after administration of Norepinephrine (chronic infarct rat; [6]): 18.5 ± 1.2 mmHg
COc1ccc2c(c1)CN(C(=O)CCN1CCC(Cc3ccccc3)CC1)CC[S+]2[O-] (stereo not drawn) [compound [III], 4-[3-(4-benzylpiperidin-1-yl)propionyl]-7-methoxy-2,3,4,5-tetrahydro-1,4-benzothiazepine-1-oxide]	42 µM	360.9±29.1 beat/min	−5982.6±520.1 mmHg/sec	106.3±5.5 mmHg	−5631.4±395.9 mmHg/sec	106.0±5.8 mmHg	361.7±26.5 beat/min	LV end-diastolic pressure after administration (chronic infarct rat; [7]): 78.4 ± 6.6%; LV minimum diastolic pressure after administration (chronic infarct rat; [7]): 76.0 ± 5.2%; LV pressure before administration (Male Wistar rats [1]; before compound infusion): 189.2±14.0 mmHg; LV pressure after administration (Male Wistar rats [1]; compound 0.1 mg/kg/min for 10 minutes, infused three times): 180.3±14.9 mmHg; stability [2]: stable against exposure of oxygen, humidity, acid and alkali at room temperature; LV end-diastolic pressure after administration (normal rat): 78.4 ± 6.6%; LV minimum diastolic pressure after administration (normal rat): 76.0 ± 5.2%; skin irritation (Skin irritation): irritating to the skin; solubility in solvents (Solubility in solvents): easily dissolved in ethanol and dimethysulfoxide (DMSO)
COc1ccc2c(c1)CN(C(=O)CCN1CCC(Cc3ccccc3)CC1)CCS2 [compound [II] (R═H), 4-[3-(4-benzylpiperidin-1-yl)propionyl]-7-methoxy-2,3,4,5-tetrahydro-1,4-benzothiazepine, reference compound]		320.2±24.2 beat/min	−5311.0±961.4 mmHg/sec	100.8±6.0 mmHg	−5973.4±1121.3 mmHg/sec	103.7±4.2 mmHg	370.1±18.9 beat/min	
COc1ccc2c(c1)CN(C(=O)CCN1CCC(Cc3ccc(O)cc3)CC1)CC[S+]2[O-] (stereo not drawn) [compound [IV], 4-{3-[4-(4-hydroxybenzyl)piperadin-1-yl]propionyl}-7-methoxy-2,3,4,5-tetrahydro-1,4-benzothiazepine-1-oxide]	100 µM							
